For assay [1], the system named is HCC1806 cells. The assay can be described thus: Cell proliferation inhibition assay (MTT, 7 days). It counts as cell-based. The conditions noted are these: HCC1086 [sic], 7 days incubation. The method, boiled down: (§1)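 Cells were seeded per well at 3000 (MCF7, T47D), 2500 (OVCAR3) or 2000 (HCC1806) and attached overnight. Nine 3-fold compound dilutions (10000-1.52 nM before addition to cells, 0.1% DMSO medium) were applied for 7 days, refreshed on day 4, in 4 replicates. MTT (3 h) was read at 570 nm, normalised to DMSO and blank, and IC50 fitted by three-parameter curve.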

For assay [2], the system named is MCF7 cells. In words: Cell proliferation inhibition assay (MTT, 7 days). Particulars: 7 days incubation. In kind it is cell-based. The method, boiled down: as §1
Assay [3] relates to OVCAR3 cells. The assay can be described thus: Cell proliferation inhibition assay (MTT, 7 days). It counts as cell-based. The conditions noted are these: 7 days incubation. The method, boiled down:
as §1

The test system of assay [4] is T47D cells. The assay can be described thus: Cell proliferation inhibition assay (MTT, 7 days). In kind it is cell-based. The conditions noted are these: 7 days incubation. The method, boiled down: as §1
Assay [5] relates to MCF-7-Palbo-R cells. The assay can be described thus: MCF-7-Palbo-R cell antiproliferative assay (BrdU ELISA). In kind it is cell-based. Particulars: for IC50: 72 hours, BrdU. Here is the method: 1. Experimental Materials • MCF-7/palbo-R • EMEM medium (ATCC, 30-2003); DMEM/F12 medium (Gibco-1 1330-032) • Fetal bovine serum (cellmax-SA21 1.02) • DMSO (SIGMA, D2650) • BrdU ELISA cell proliferation assay kit (Roche, 11647229001) • ELISA (e.g. MD-SpectraMax ID5 or EnVision)
2. Experimental protocol • 1. Cell spreading • 1) Cells were counted, the concentration of cell suspension was adjusted • 2) The MCF7/Palbo-R cell suspension was seeded in 96-well plates at […] volume to make the number of cells per well is 4000-5000; • 3) Blank control group was added with 90 μl of culture medium; • 2. […] A 3-fold serial gradient dilution was performed with 0.1% DMSO medium for a total of 9 concentrations, and the concentrations of the compounds after dilution were as follows: • 10000 nM, 3333.33 nM, 1111.11 nM, 370.34 nM, 123.45 nM, 41.15 nM, 13.72 nM, 4.57 nM, and 1.52 nM. • b) After 72 hours of compound treatment. • 1) A 10 mM of Brdu stock solution was diluted with RPMI medium and added to a 96-well plate at 20 uL/well and shaken at 350 rpm for 10 minutes. • 2) The 96 well plate was placed back into the incubator for 1 or 2 hours. • 3) After the medium was removed from the 96-well plate, 200 ul/well of Fixation/Denaturation solution was added and incubated for 30 minutes at room temperature. • 4) The fixation solution was removed and 100 ul of peroxidase-coupled anti-Brdu antibody solution (antibody dilution prepared at 1:100 dilution) was added, • and incubated at 350 rpm for 1 hour at room temperature. • 6) The 96-well plate was washed three times with 300 ul/well of PBS. • 8) 100ul of peroxidase substrate solution was added and shaken at 350 rpm for about 10-20 minutes at room temperature, • until the DMSO-treated cell control wells turn a medium blue color. If a color is too dark, it will cause the absorbance value to out of the reading range. • 9) The reaction was terminated by the addition of 25 ul of 1 M sulfuric acid. Shake to ensure uniform color. • 10) The absorbance at 450 nm was recorded. • 3. Data analysis • The inhibition rate is calculated using the following equation:
IR (%)=(1−(RLU compound−RLU blank)/(RLU control−RLU blank))*100%.
In general terms: Dividing cells build labelled thymidine or BrdU into new DNA.

For assay [6], the system named is MV4-11 cells. The assay can be described thus: MV4-11 xenograft tumor model. It counts as in vivo. Particulars: 20 mg/kg, oral tube feeding once a day for 15 days, NOD/SCID mice. Here is the method:
MV-4-11 cells were cultured in IMEM culture medium containing 10% fetal bovine serum. Cells in the exponential growth phase were collected, and the cells were resuspended in PBS to a suitable concentration for subcutaneous tumor inoculation in nude mice.
To establish a xenograft tumor model, 5×10^6 MV4-11 cells were suspended in 0.1 mL of a 1:1 mixture of PBS and Matrigel and injected subcutaneously into the right dorsal side of 6-8-week-old NOD/SCID mice. Tumor growth was observed periodically, and the volume (volume=½×(length×width^2)) was measured with a vernier caliper. When the tumors grew to an average volume of 100˜150 mm^3, the drug was administered to mice (12 days after inoculation) in random groups according to the tumor size and their body weights. […] Among them, the mice in the Vehicle, 10 mg/kg TY-3301, 10 mg/kg C3, and 20 mg/kg C3 groups were administered twice a day by oral tube feeding for 15 days, and the mice in the 20 mg/kg TY-3300 group were administered once a day by oral tube feeding for 15 days. Tumor volume and animal weight were measured twice a week and continued until the end of the experiment. Dosing day was defined as day 0. Measurement time points were day 0, day 3, day 7, day 10, day 14, and day 15. All mice were euthanized by cervical dislocation. At the end of the experiment, tumors were collected and weighed to calculate TGI values (see Table 6).

In assay [7] the test system is OVCAR-3 cells. In words: OVCAR-3 xenograft tumor model. Particulars: 60 mg/kg, oral tube feeding once daily for 21 days, BALB/c nude female mice. In kind it is in vivo. Here is the method: OVCAR-3 cells were cultured in RPMI1640 culture medium containing 20% fetal bovine serum and 10 μg/mL Insalin. Cells in the exponential growth phase were collected, and the cells were resuspended in the mixed solution of PBS and Matrigel in a ratio of 1:1 to a suitable concentration for subcutaneous tumor inoculation in nude mice.
To establish a xenograft tumor model, 1×10^7 OVCAR-3 cells were suspended in 0.2 mL of a mixture of PBS and Matrigel (1:1) and injected subcutaneously into 6-8-week-old BALB/c nube female mice on the right back. Tumor growth was observed periodically, and the volume (volume=½[…](length×width 2)) was measured with a vernier caliper. When the tumors grew to an average volume of 100˜150 mm^3, the drug was administered to mice (27 days after inoculation) in random groups according to the tumor size and their body weights. […] Tumor volume and animal weight were measured twice a week and continued until the end of the experiment. Dosing day was defined as day 0. Measurement time points were day 0, day 3, day 7, day 10, day 14, day 17 and day 21. All mice were euthanized by cervical dislocation. At the end of the experiment, tumors were collected and weighed to calculate TGI values (see Table 5).

Read-outs that look alike come from different tables or passages of the source.

In the case of Palbociclib [reference compound], the IC50 was over 1000 nM in assay [1]; at most 50 nM in assay [2]; over 1000 nM in assay [3]; 50 to 5200 nM in assay [4]; 4.01 µM in assay [5] (read-out: AbsIC50); 7.09 µM in assay [5] (read-out: ReIC50). The “Bottom(%)” value in assay [5] (bottom of inhibition curve) is given as −3.542%. Besides, the “Top(%)” value in assay [5] (top of inhibition curve) was determined as 68.840%. In addition, the TGI (in general, the reduction of tumour growth relative to the control group) was determined as 39% in assay [6] and 27.7% in assay [7].
